Earlier results on one substance are cited in US20060153940A1, “Use of physiologically active fatty acids” (priority 2004, published 2006).

Turning to β-escin, the solubility in alcohol entry (alcohol) was “can be dissolved in alcohol”. The solubility in water result (water) is given as “practically water-insoluble”.
